# According to US9175260B2, “Early mesoderm cells, a stable population of mesendoderm cells that has utility for generation of endoderm and mesoderm lineages and multipotent migratory cells (MMC)” (TheUniversity of Georgia Research Foundation, Inc., priority 2007, dated 2015):
# Key:
# Format in all cases: cell-based, human
# hESCs (BG01) [1] = test: Mesendoderm generation from hESCs with BIO in defined media (Q-PCR, immunostaining); conditions: BIO 2 μM
# Description: hESCs (BG01) were plated as per the conditions specified in Example 1 in defined media. After ˜16-24 hours, BIO (2 μM) was added to cultures.
# hESCs (BG02) = test: BIO added to hESCs grown in MEF-CM (immunostaining)
# Description: hESCs (BG02) grown in MEF-CM on Matrigel coated plates, were passaged in MEF-CM plus BIO (2 μM) over 4 days.
# hESCs (BG01) [2] = test: Mesendoderm generation from hESCs with Wnt3a in defined media (Q-PCR, immunostaining); conditions: Wnt3a 25 ng/ml
# Description: hESCs (BG01) were plated as per the conditions specified in Example 1 in defined media. After ˜16-24 hours, human Wnt3a (25 ng/ml; R&D Systems) was added to cultures.
# [3] = system: cells passaged in BIO/SB431542 (MMCs); test: Differentiation of MMCs to endoderm with Activin A after removal of BIO/SB431542 (Q-PCR); conditions: 6 passages in BIO/SB431542, then Activin A to 100 ng/ml without IGF-I, heregulin; 4 day period
# From the text: We consider these cells to be pre-mesoderm and pre-endoderm but no longer hESCs. This raised the possibility that these cells retained a multipotent differentiation potential that could be manifested following removal of BIO/SB431542 and by addition of cell differentiation factors. To test the possibility that the cells in BIO/SB431542-containing media could be further differentiated into endoderm, we grew cells for 6 passages in BIO/SB431542, then removed BIO/SB431542, and IGF-I, heregulin (two activators of PI3K activity) from the media and supplemented with Activin A to 100 ng/ml. These are conditions that support differentiation of hESCs to definitive endoderm. Over a 4 day period following the switch to the endoderm differentiation conditions we observed increases in Sox17 and CXCR4 transcripts while Nanog, T and eomesodermin transcripts remained low (FIG. 32). […] We propose that the BIO/SB431542 treated cells could also be differentiated into mesoderm and perhaps other lineages (ectoderm) if exposed to the appropriate specification factors. For example, we believe that BIO/SB431542-treated cells could be converted to mesoderm cells if BIO/SB431542 was removed and BMP4 was added to the media.
# hESC (BG02) = test: Generation of definitive endoderm: BIO and SB431542 followed by high Activin A (Q-PCR); conditions: defined media minus IGF-I and Heregulin plus Activin A 100 ng/ml, 4 days, after 4 days BIO/SB431542
# Description: hESC were taken and grown in defined media in the presence of BIO (2 μM) and SB431542 (20 μM) for 4 days. The cells were then split 1-4 into the same media or defined media minus IGF-I and heregulin and with additional Activin A (100 ng/ml) for an additional 4 days (FIG. 22). Samples (BG02) were taken every 2 days up to 8 days for Q-PCR analysis. […] This cell type persisted in the presence of BIO/SB431542.
# [4] = involving an epithelial to mesenchymal transition
# [5] = BIO 2 μM, 4 days, cells passaged with trypsin
# [6] = BIO, cells passaged with collagenase
molecule,measurement,setting,value
"O=C1Nc2cc(Br)ccc2/C1=C1/Nc2ccccc2/C1=N\O [BIO, (2′Z,3′E)-6-Bromoindirubin-3′-oxime]",Snail localisation (immunostaining),hESCs (BG01) [1]; 48 hours,accumulates in the nucleus
same,T/brachyury levels (immunostaining),hESCs (BG01) [1]; 48 hours,increased
same,E-cadherin and Nanog (immunostaining),hESCs (BG01) [1]; after 48 hours,downregulated
same,Nanog transcripts (Q-PCR),hESCs (BG01) [1]; defined media,decreased by 48 hours
same,T and MixL1 mRNA levels (Q-PCR),hESCs (BG01) [1]; defined media,increased over the first 24 hours then decreased thereon
same,differentiation outcome,hESCs (BG01) [1]; [4],caused hESCs to differentiate to mesendoderm
same,differentiation outcome,hESCs (BG02); BIO 2 μM,promotes an epithelial to mesenchymal transition and differentiation to mesendoderm
same,Oct4 and E-cadherin (immunostaining),hESCs (BG02); [5],downregulation
same,T/Brachyury (immunostaining),hESCs (BG02); [5],upregulation
same,Nanog and E-cadherin (immunostaining),hESCs (BG02); [6],downregulation
same,T/Brachyury (immunostaining),hESCs (BG02); [6],upregulation
"Wnt3a: canonical Wnt signaling molecule; human Wnt3a (R&D Systems) (protein, UniProt P56704 19-352, looked up) Protein Wnt-3a: SYPIWWSLAVGPQYSSLGSQPILCASIPGLVPKQLRFCRNYVEIMPSVAEGIKIGIQECQHQFRGRRWNCTTVHDSLAIFGPVLDKATRESAFVHAIASAGVAFAVTRSCAEGTAAICGCSSRHQGSPGKGWKWGGCSEDIEFGGMVSREFADARENRPDARSAMNRHNNEAGRQAIASHMHLKCKCHGLSGSCEVKTCWWSQPDFRAIGDFLKDKYDSASEMVVEKHRESRGWVETLRPRYTYFKVPTERDLVYYEASPNFCEPNPETGSFGTRDRTCNVSSHGIDGCDLLCCGRGHNARAERRREKCRCVFHWCCYVSCQECTRVYDVHTCK",T/brachyury levels (immunostaining),hESCs (BG01) [2]; 48 hours,increased
same,β-catenin and Snail localisation (immunostaining),hESCs (BG01) [2]; 48 hours,accumulate in the nucleus
same,E-cadherin and Nanog (immunostaining),hESCs (BG01) [2]; after 48 hours,downregulated
same,Nanog transcripts (Q-PCR),hESCs (BG01) [2]; defined media,decreased by 48 hours
same,"T, Eomes and MixL1 mRNA levels (Q-PCR)",hESCs (BG01) [2]; defined media,"increased over 1-2 days, then decreased by day 5"
same,differentiation outcome,hESCs (BG01) [2]; [4],caused hESCs to differentiate to mesendoderm
"Activin A: growth factor (R&D Systems), used at high levels (100 ng/ml) to produce definitive endoderm (protein, UniProt P08476 311-426, looked up) Inhibin beta A chain: GLECDGKVNICCKKQFFVSFKDIGWNDWIIAPSGYHANYCEGECPSHIAGTSGSSLSFHSTVINHYRMRGHSPFANLKSCCVPTKLRPMSMLYYDDGQNIIKKDIQNMIVEECGCS","Nanog, T and eomesodermin transcripts (Q-PCR)",[3],remained low
same,Sox17 and CXCR4 transcripts (Q-PCR),[3],increases
same,"differentiation after switch to Activin A (Q-PCR: Sox17, CXCR4 upregulated, FoxF1 absent)",hESC (BG02),further differentiated into DE
